One assay has as its target NLRP3 inflammasome (Homo sapiens (Human), UniProt Q96P20). Nature of the assay: Evaluation of NLRP3 inflammasome inhibitory activity (inhibition of IL-1β production in LPS/Nigericin-stimulated THP1-Null cells). Format: cell-based. The note with it: IL-1β production in THP1-Null cells, PMA, LPS 1 μg/mL, Nigericin 7.5 μmol/L, AlphaLISA. A digest of the protocol: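 THP1-Null cells primed with 1 μg/mL LPS, then treated with test compound; supernatant IL-1β quantified by AlphaLISA. Inhibition calculated with blank wells as 100% and control wells as 0%.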
(Alpha assays give light when donor and acceptor beads are brought close together.)
NLRP3 inflammasome, sequence (Q96P20 whole entry): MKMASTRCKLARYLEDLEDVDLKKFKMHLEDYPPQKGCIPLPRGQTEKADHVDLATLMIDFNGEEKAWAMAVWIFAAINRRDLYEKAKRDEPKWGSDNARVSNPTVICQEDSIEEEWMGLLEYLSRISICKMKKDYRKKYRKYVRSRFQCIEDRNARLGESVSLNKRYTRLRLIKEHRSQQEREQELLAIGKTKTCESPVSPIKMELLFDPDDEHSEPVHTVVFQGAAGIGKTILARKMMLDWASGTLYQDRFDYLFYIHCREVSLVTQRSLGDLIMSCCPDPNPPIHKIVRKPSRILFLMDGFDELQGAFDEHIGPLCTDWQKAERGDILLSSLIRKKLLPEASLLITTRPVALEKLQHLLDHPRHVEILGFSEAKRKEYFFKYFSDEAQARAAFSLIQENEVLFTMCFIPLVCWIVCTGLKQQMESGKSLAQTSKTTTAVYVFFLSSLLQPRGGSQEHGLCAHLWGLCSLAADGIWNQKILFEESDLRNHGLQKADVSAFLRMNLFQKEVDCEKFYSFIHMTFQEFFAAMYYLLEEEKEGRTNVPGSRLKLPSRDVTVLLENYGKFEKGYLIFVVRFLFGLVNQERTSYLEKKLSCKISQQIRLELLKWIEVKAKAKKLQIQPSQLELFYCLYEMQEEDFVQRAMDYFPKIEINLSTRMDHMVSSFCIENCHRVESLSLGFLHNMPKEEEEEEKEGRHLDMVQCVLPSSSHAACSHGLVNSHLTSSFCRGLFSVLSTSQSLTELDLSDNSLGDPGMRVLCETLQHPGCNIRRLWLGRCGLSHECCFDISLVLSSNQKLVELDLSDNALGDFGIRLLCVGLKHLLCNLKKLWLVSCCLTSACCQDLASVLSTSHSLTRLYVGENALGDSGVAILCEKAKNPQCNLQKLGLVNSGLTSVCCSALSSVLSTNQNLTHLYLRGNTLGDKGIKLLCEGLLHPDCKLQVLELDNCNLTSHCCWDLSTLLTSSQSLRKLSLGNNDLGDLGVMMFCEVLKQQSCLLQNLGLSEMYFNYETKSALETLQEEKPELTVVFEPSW
In turn, `O=c1[nH]c(N2CCOCC2)nc2nn(-c3c(Cl)cc(C(F)(F)F)cc3OCC3CC3)cc12` [Example 190] gave an IC50 of 0.041 µM. This lies in the double-digit nanomolar range.

`O=c1[nH]c(N2CCOCC2)nc2nn(-c3ccccc3C(F)(F)F)cc12` [Example 25] came in with a half-inhibitory concentration (IC50) of 0.95 µM.

Compound `CONc1nc2nn(-c3c(C)cc(C4CC4)cc3C)cc2c(=O)[nH]1` [Example 348] showed an IC50 of 0.033 µM.

Compound `O=c1[nH]c(N2CCOCC2)nc2nn(-c3ccc(Br)cc3C3CC3)cc12` [Example 196] gave an IC50 of 0.011 µM.

For `Cc1cc(C2CC2)ncc1-n1cc2c(=O)[nH]c(N3CCOCC3)nc2n1` [Example 202], it took 0.64 µM to reach half-maximal inhibition (IC50).

Take `O=c1[nH]c(N2CCCC2)nc2nn(-c3ccccc3C(F)(F)F)cc12` [Example 8]: the midpoint of inhibition, the IC50, lay at 0.59 µM.

The compound `Cc1cc(Br)ccc1-n1cc2c(=O)[nH]c(N3CCN(C(=O)C4CC4)CC3)nc2n1` [Example 140] registered an IC50 of 0.0058 µM.

`CC(C)Oc1cc(Br)ccc1-n1cc2c(=O)[nH]c(N3CCOCC3)nc2n1` [Example 303] returned an IC50 of 0.088 µM. Compared with the last compound, the IC50 is about 15-fold higher.

In turn, `CO[C@@H]1CCN(c2nc3nn(-c4c(C)cc(C5CC5)cc4C)cc3c(=O)[nH]2)C1` [Example 317] returned an IC50 of 0.0052 µM.

`Cc1cc(Br)cc(C)c1-n1cc2c(=O)[nH]c(N3CCCCCO3)nc2n1` [Example 338]: the IC50 was determined as 0.025 µM. This IC50 lies about 4.8-fold higher than the previous one.

Regarding `O=c1[nH]c(N2CC3(CC(O)C3)C2)nc2nn(-c3ccc(C(F)(F)F)cc3Cl)cc12` [Example 183], half-maximal inhibition (IC50) required 0.015 µM.

With `CC(=O)N1CC2CN(c3nc4nn(-c5ccc(C(F)(F)F)cc5Cl)cc4c(=O)[nH]3)CC2C1` (stereo not shown) [Example 187], the IC50 was found to be 0.038 µM.

`Cc1cc(Br)cc(C)c1-n1cc2c(=O)[nH]c(N3CC4COC(C4)C3)nc2n1` (racemic) [Example 279] displayed an IC50 of 0.015 µM.

Consider `Cc1cc(Br)cc(C)c1-n1cc2c(=O)[nH]c(NCC(F)(F)F)nc2n1` [Example 266], for which half-maximal inhibition (IC50) required 0.014 µM.

`Cc1cc(Br)cc(C)c1-n1cc2c(=O)[nH]c(N3CCOC(O)C3)nc2n1` (racemic) [Example 364] displayed an IC50 of 0.066 µM.

`Cc1cc(C)c(-n2cc3c(=O)[nH]c(N4CCC(C)C4)nc3n2)c(C)c1` (racemic) [Example 109] had an IC50 of 0.064 µM.

For `COC1CCN(c2nc3nn(-c4ccc(Br)cc4C)cc3c(=O)[nH]2)C1` (racemic) [Example 70], it took 0.039 µM to reach half-maximal inhibition (IC50).

`Cc1cc(C2CC2)cc(C)c1-n1cc2c(=O)[nH]c(N3CCOCCO3)nc2n1` [Example 349, 2-(4-cyclopropyl-2,6-dimethylphenyl)-6-(1,5,2-dioxazepan-2-yl)-2,5-dihydro-4H-pyrazolo[3,4-d]pyrimidin-4-one] gave an IC50 of 0.019 µM.

`Cc1cc(Br)cc(C)c1-n1cc2c(=O)[nH]c(N3CCOCC3O)nc2n1` (racemic) [Example 363] displayed an IC50 of 0.0029 µM.

Compound `Cc1cc(OC(F)F)cc(C)c1-n1cc2c(=O)[nH]c(N3CCOCCO3)nc2n1` [Example 352] yielded an IC50 of 0.068 µM.

In the case of `Cc1cc(Br)ccc1-n1cc2c(=O)[nH]c(N3CCN(S(C)(=O)=O)CC3)nc2n1` [Example 91], the IC50 was found to be 0.0067 µM.

In the case of `Cc1cc(Cl)cc(C(O)C2CC2)c1-n1cc2c(=O)[nH]c(N3CCOCC3)nc2n1` (racemic) [Example 162], the IC50 was 0.15 µM.

The compound `Cc1cc(C)c(-n2cc3c(=O)[nH]c(N4CCC(N(C)C)C4)nc3n2)c(C)c1` (racemic) [Example 113] had an IC50 of 0.063 µM.

`Cn1c(N2CC3CC(C2)O3)nc2nn(-c3ccc(Br)cc3C(F)(F)F)cc2c1=O` [Example 311] returned an IC50 of 0.32 µM.

The compound `COC1CN(c2nc3nn(-c4ccccc4C)cc3c(=O)[nH]2)C1` [Example 33] came in with an IC50 of 2.3 µM.

`Cc1cc(C2CC2)cc(C)c1-n1cc2c(=O)n(C)c(N3CC4CC(C3)O4)nc2n1` [Example 312] showed an IC50 of 0.25 µM.

The assay is the same for the next values; noted with them: IL-1β production in THP1-Null cells; test compound 0.0024 μM.
In the case of `Cc1cc(Br)cc(C)c1-n1cc2c(=O)[nH]c(NC(C)C)nc2n1` [Example 235], the inhibition at 0.0024 µM was 52%.

The same assay, now with this note: IL-1β production in THP1-Null cells; test compound 2.4 μM.
As for `Cc1nn(C)c(C)c1-n1cc2c(=O)[nH]c(N3CCCC3)nc2n1` [Example 342], the inhibition at 2.4 µM is 45%.

One may read the IC50 as the concentration needed to halve the response being measured. Low readings indicate inhibition by little substance, high ones a need for much substance. Broadly, the inhibition is the share of the control response that was lost under treatment.
